Like-named read-outs stand apart in the source and are kept apart here. No end group written: not given here.
Tests used:
HLA-A*24:02 molecule = HLA-A*24:02 molecule (Homo sapiens, UniProt P04439, D101N/D140Y/D185E/E176V/E190D/F33S/G103R/G107R/I119L/I121M/I306V/K335N/L105A/L180Q/L300P/N151K/N90K/Q86E/Q94H/R106L/R138H/R89G/T104I/T345S/V100E/W191G/Y123F); test: Binding of peptide to HLA-A*24:02 molecule using C1R-A24 cells
Protocol: Measurement of binding ability of a peptide to an HLA-A*24:02 molecule, which is a product of an HLA-A*24:02 gene, was performed using C1R-A24 cells expressing an HLA-A*24:02 molecule (Cells created by Professor Masafumi Takiguchi, Kumamoto University, was provided by Assistant Professor Masaki Yasukawa, Ehime University, with permission).
First, the C1R-A24 cells were exposed to acidic conditions at pH 3.3 for 30 seconds to dissociate and remove an endogenous peptide originally binding to an HLA-A*24:02 molecule and light chain β2m commonly associated with an HLA class I molecule. After neutralization, purified β2m was added to the C1R-A24 cells, and the mixture was added to a peptide dilution series and incubated on ice for four hours.
Thereafter, the number of MHC-peps for each C1R-A24 cell (proportional to a fluorescence intensity of the fluorescent antibody) was quantitatively measured using a fluorescence cell analyzer FACScan (Becton-Dickinson).

HLA-A*02:01 molecule = target: T1, HLA-A*02:01 molecule (Homo sapiens, UniProt P04439, D140Y/D185E/D98H/E176V/E277Q/G131W/G231S/I119V/I121R/I166T/I218V/L300P/L318F/N151K/N90K/P208A/P217A/Q86G/Q94H/R138H/R169H/T345S); test: Binding of peptide to HLA-A*02:01 molecule using cell line T2
T1 construct: using a cell line T2 (purchased from ATCC) expressing an HLA-A*02:01 molecule; host or cells: T2 cell line
Protocol: Measurement of binding ability of a peptide to an HLA-A*02:01 molecule, which is a product of an HLA-A*02:01 gene, was performed using a cell line T2 (purchased from ATCC) expressing an HLA-A*02:01 molecule.
T2 cells and purified β2m were added to a serial dilution series of a peptide whose binding ability was to be measured, and then the mixture was incubated at 37° C. for four hours. HLA-A*02:01 molecules whose expression level increased in a peptide concentration-dependent manner by this time point were stained using an association-type specific fluorescently labeled monoclonal antibody BB7.2.
Thereafter, the amount of fluorescence per cell was measured with a flow cytometer, and a dissociation constant Kd value was calculated by the method disclosed in the article (Udaka et al., Immunogenetics, 51, 816-828, 2000) by the present inventor.

HLA-A*02:06 molecule = target: T2, HLA-A*02:06 molecule (Homo sapiens, UniProt P04439, D140Y/D185E/D98H/E176V/E277Q/F33Y/G131W/G231S/I119V/I121R/I166T/I218V/L300P/L318F/N151K/N90K/P208A/P217A/Q86G/Q94H/R138H/R169H/T345S); test: Binding of peptide to HLA-A*02:06 molecule using RA2.6 cells
T2 construct: expressed in transfected cells; host or cells: RA2.6 cells (mouse TAP-deficient RMAS with HLA-A*02:06 cDNA)
Protocol: Measurement of binding ability of a peptide to an HLA-A*02:06 molecule, which is a product of an HLA-A*02:06 gene, was performed using RA2.6 cells (a cell line newly created at Kochi University) obtained by introducing cDNA of the HLA-A*02:06 gene into RMAS, which is a mouse transporter associated with antigen processing (TAP)-deficient cell line.
A fluorescently labeled monoclonal antibody BB7.2 that specifically recognizes a peptide binding type HLA-A*02:06 molecule was added thereto, and the mixture was incubated on ice for 20 minutes to stain the cells.

[1] = Table 2, dissociation constant Kd value (−log Kd value), >−3.0 = no significant binding ability, read-out: Measured value of allele A*24:02 (converted)
[2] = Table 4, Kd value (−log Kd value), smaller than −3 = binding property, read-out: Measured value of allele A*24:02 (converted)
[3] = Table 2, dissociation constant Kd value (−log Kd value), >−3.0 = no significant binding ability, read-out: Measured value of allele A*02:01 (converted)
[4] = Table 2, dissociation constant Kd value (−log Kd value), >−3.0 = no significant binding ability, read-out: Measured value of allele A*02:06 (converted)
[5] = Table 4, Kd value (−log Kd value), smaller than −3 = binding property, read-out: Measured value of allele A*02:01 (converted)

## STGESAQTS [compound 71]
HLA-A*24:02 molecule; [1]
  Kd: > 1000 µM
HLA-A*24:02 molecule; [2]
  Kd: > 1000 µM
HLA-A*02:01 molecule; [3]
  Kd: > 1000 µM
HLA-A*02:06 molecule; [4]
  Kd: > 1000 µM

## THLDAGTVE [compound 75]
HLA-A*24:02 molecule; [1]
  Kd: > 1000 µM
HLA-A*24:02 molecule; [2]
  Kd: > 1000 µM
HLA-A*02:01 molecule; [3]
  Kd: > 1000 µM
HLA-A*02:06 molecule; [4]
  Kd: > 1000 µM

## TLTAWQHGL [compound 33]
HLA-A*24:02 molecule
  Kd: 20.1 µM
HLA-A*02:01 molecule
  Kd: 1.11 µM
HLA-A*02:06 molecule
  Kd: 1.42 µM

## TVLVPPRNL [compound 48]
HLA-A*24:02 molecule; [1]
  Kd: 5.36 µM
HLA-A*24:02 molecule; [2]
  Kd: 5.36 µM
HLA-A*02:01 molecule; [3]
  Kd: > 1000 µM
HLA-A*02:01 molecule; [5]
  Kd: > 1000 µM
HLA-A*02:06 molecule; [4]
  Kd: > 1000 µM
HLA-A*02:06 molecule; Table 4, Kd value (−log Kd value), smaller than −3 = binding property
  Measured value of allele A*02:06: >−3

## VFGRVMQID [compound 66]
HLA-A*24:02 molecule; [1]
  Kd: 3.87 µM
HLA-A*02:01 molecule; [3]
  Kd: > 1000 µM
HLA-A*02:06 molecule; [4]
  Kd: > 1000 µM

## VLLQQFQTA [compound 15]
HLA-A*24:02 molecule; [1]
  Kd: 2.81 µM
HLA-A*02:01 molecule; [3]
  Kd: 19.3 µM
HLA-A*02:06 molecule; [4]
  Kd: 3.4 µM

## VLPPARHST [compound 54]
HLA-A*24:02 molecule; [1]
  Kd: > 1000 µM
HLA-A*24:02 molecule; [2]
  Kd: > 1000 µM
HLA-A*02:01 molecule; [3]
  Kd: 7.73 µM
HLA-A*02:06 molecule; [4]
  Kd: > 1000 µM

## VMQIDGVQP [compound 67]
HLA-A*24:02 molecule; [1]
  Kd: > 1000 µM
HLA-A*24:02 molecule; [2]
  Kd: > 1000 µM
HLA-A*02:01 molecule; [3]
  Kd: > 1000 µM
HLA-A*02:06 molecule; [4]
  Kd: 389 µM

## VMSHHGEKL [compound 19]
HLA-A*24:02 molecule; [1]
  Kd: 0.793 µM
HLA-A*02:01 molecule; [3]
  Kd: 8.32 µM
HLA-A*02:06 molecule; [4]
  Kd: 50.4 µM

## YFFTVIFSF [compound 44]
HLA-A*24:02 molecule; [1]
  Kd: 0.168 µM
HLA-A*02:01 molecule; [3]
  Kd: > 1000 µM
HLA-A*02:06 molecule; [4]
  Kd: > 39.8 µM

## YLYDPPTTI [compound 4]
HLA-A*24:02 molecule; [1]
  Kd: 0.692 µM
HLA-A*02:01 molecule; [3]
  Kd: 0.583 µM
HLA-A*02:06 molecule; [4]
  Kd: 1.36 µM

## YPGWHSTTI [compound 52]
HLA-A*24:02 molecule; [1]
  Kd: 2.18 µM
HLA-A*02:01 molecule
  Kd: > 1000 µM
HLA-A*02:06 molecule; [4]
  Kd: > 1000 µM

## YQLSPPITW [compound 32]
HLA-A*24:02 molecule; Measured value of allele A*24:02, Table 2, dissociation constant Kd value (−log Kd value), >−3.0 = no significant binding ability
  Kd: 1.72 µM
HLA-A*24:02 molecule; Measured value of allele A*24:02, Table 4, Kd value (−log Kd value), smaller than −3 = binding property
  Kd: 0.172 µM
HLA-A*02:01 molecule
  Kd: 351 µM
HLA-A*02:06 molecule
  Kd: 1.78 µM

## YTYDPPTTI [compound 3]
HLA-A*24:02 molecule; [1]
  Kd: 3.11 µM
HLA-A*02:01 molecule; [3]
  Kd: 0.336 µM
HLA-A*02:01 molecule; [5]
  Kd: 3.36 µM
HLA-A*02:06 molecule; Table 4, Kd value (−log Kd value), smaller than −3 = binding property, read-out: Measured value of allele A*02:06 (converted)
  Kd: 0.669 µM

## YVYDPPTTI [compound 2]
HLA-A*24:02 molecule; [1]
  Kd: 0.584 µM
HLA-A*02:01 molecule; [3]
  Kd: 0.696 µM
HLA-A*02:06 molecule; [4]
  Kd: 2.8 µM

From patent publication US20250236642A1, “PHARMACEUTICAL COMPOSITION FOR TREATMENT OR PREVENTION OF ADULT T-CELL LEUKEMIA” (NEC Corporation, priority 2022, published 2025)
